The term Kd denotes a measure of binding affinity in units of concentration. Read a low Kd as higher affinity.

Structures are written as SMILES. Positions of bridges follow the written chain, without caps; N, C: chain ends. Non-standard residues stand in square brackets, D forms with d. Residues, ends and D or L forms follow the SMILES beside them. *: point of attachment. FITC = O=C1OC2(c3ccc(O)cc3Oc3cc(O)ccc32)c2ccc(NC(=S)*)cc21; S5 = C=CCCC[C@](C)(N)C(=O)O; AEEA = NCCOCCOCC(=O)O

Consider one molecule from publication PMC8682738, “Constrained peptides mimic a viral suppressor of RNA silencing” (Nucleic Acids Research, 2021).

Common to all, as to assay type: binding
One assay has as its target ds miR-21. Nature of the assay: ITC with ds miR-21. The procedure:
(§1) Isothermal titration calorimetry (ITC) was conducted using a MicroCal VP-ITC (Malvern Panalytical). Before measurement, oligonucleotide and peptide samples were dissolved in PBS and degassed using a ThermoVac (Malvern Panalytical) and heated to 30°C. N-terminally acetylated peptides (c = 3–12 μM) were then transferred into the sample cell and oligonucleotides (c = 12–72 μM) were transferred into the syringe. 35 Injections per measurement were performed at 30°C (8 μl injection volume, 2 s injection time, 180 s spacing, high feedback mode) with an initial delay of 60 s and a stirring speed of 307 rpm. Measurements were performed in triplicate. Using the MicroCal LLC ITC software (Origin; OriginLab Corporation), the heat associated with each injection was calculated by integrating the area under the curve in microcalories per second [μca/s] versus time [min] for each injection and then normalized to concentration. A ‘single set of identical binding sites’ model was used to fit the binding curves from which thermodynamic binding parameters (ΔG, ΔH, ΔS, N and Kd) were obtained.

Another assay addresses pre-miR-21. Nature of the assay: ITC with pre-miR-21. The method, then:
as §1

The subject of the next assay is ds RNA hairpins HP 1–5. The experiment in a line: EMSA with ds RNA hairpins HP 1-5. The note with it: fluorescein-labeled B3 2 μM, hairpin RNA 1 μM, TAE and 10% glycerol, RT 1 h. The method, then:
Electrophoretic mobility shift assays (EMSAs) were performed using a Bio-Rad Mini-Protean gel system paired with a direct current (DC) power source (PowerPac™ HC, Bio-Rad). Typically, 6 μl solutions containing ds RNA (c = 3 μM) and fluorescein-labeled peptide (c = 6 μM) were incubated in binding buffer (10 mM Tris (pH 8.0), 0.5 mM EDTA, 12.5% glycerol and 150 mM KCl) at 4°C for 1 h. After incubation, bound RNA was resolved from peptide-free RNA using 10% non-denaturing polyacrylamide gels at 120 V in running buffer (25 mM Tris (pH 8.0), 200 mM glycine, 20 mM NaCl) at 4°C for 1 h. Visualization of fluorescent gel-bound species was conducted using a Typhoon Trio + fluorescence scanner (GE Healthcare Life Sciences). For nucleic acid visualization, gels were stained using 2 μl of SYBR™ gold nucleic acid gel dye (Molecular Probes) in 20 ml of TAE buffer (40 mM Tris, 1 mM EDTA, 20 mM acetic acid) for 45 min at RT before being visualized using a FluorChem™ gel documentation system (Alpha Innotech). To assess B3 binding to different ds RNA sequences (Supplementary Figure S20), 6 μl solutions containing hairpin RNA (c = 1 μM) and fluorescein-labeled B3 (c = 2 μM) were incubated in binding buffer (TAE and 10% glycerol) at RT for 1 h, and then resolved using 15% non-denaturing polyacrylamide gels (acrylamide/bis-acrylamide (19:1) in TAE) at 150 V in running buffer (TAE) at 4°C for 1.5 h. […]
On the technique in general: Mobility shift assays separate free from complexed probe on a gel.

As for `CC(C)C[C@H](NC(=O)[C@]1(C)CCCC=CCCC[C@](C)(NC(=O)[C@H](CCC(=O)O)NC(=O)[C@H](CO)NC(=O)[C@@H]2CCCN2C(=O)[C@H](CO)NC(=O)[C@H](CCCCN)NC(=O)[C@H](Cc2c[nH]cn2)NC(=O)CNC(=O)[C@H](CCCNC(=N)N)NC(=O)[C@]2(C)CCCC=CCCC[C@](C)(NC(=O)[C@H](CCCCN)NC(=O)[C@H](Cc3c[nH]cn3)NC(=O)[C@H](CCCNC(=N)N)NC(=O)[C@H](CCCCN)NC(=O)[C@H](CCCNC(=N)N)NC(=O)[C@H](CCC(N)=O)NC(=O)[C@H](C)NC(=O)[C@H](CCC(N)=O)NC(=O)[C@H](CCCCN)NC(=O)[C@H](CCCCN)NC(=O)COCCOCCNC(=S)Nc3ccc4c(c3)C(=O)OC43c4ccc(O)cc4Oc4cc(O)ccc43)C(=O)N[C@@H](CC(N)=O)C(=O)N[C@@H](CCCNC(=N)N)C(=O)N[C@@H](CCCCN)C(=O)N2)C(=O)N[C@@H](CCCNC(=N)N)C(=O)N[C@@H](CCCNC(=N)N)C(=O)N[C@@H](CO)C(=O)N1)C(=O)N[C@@H](Cc1c[nH]c2ccccc12)C(=O)N[C@@H](Cc1c[nH]cn1)C(=O)N[C@@H](C)C(=O)N[C@@H](CCCNC(=N)N)C(N)=O` [B3] ({FITC-AEEA}-KKQAQRKRHK[S5]NRK[S5]RGHKSPSE[S5]RRS[S5]LWHAR-NH2; staple 11-15, 24-28), the equilibrium dissociation constant (Kd) at ds miR-21 was 18 ± 2 nM; on pre-miR-21, 75 ± 8 nM. The “binding to ds RNA hairpins in EMSA” value with ds RNA hairpins HP 1–5 is given as “showed binding to each hairpin”.
